Measured values from article PMC10629462 (Molecular cell, 2023).

Assays:
CtSen1^FL = CtSen1^FL (Thermochaetoides thermophila, UniProt G0S163); assay: malachite green phosphate release ATPase assay; type: biochemical; conditions: 1 mM ATP, 2 mM MgCl2, pH 7.5, 37 °C, RNA-DNA Sub6 5 μM, 5 nM enzyme
CtSen1Hel-1878 = target: T1, CtSen1Hel-1878 (Chaetomium thermophilum, UniProt G0S163 1087-1878); assay: X-ray crystallography
T1 sequence: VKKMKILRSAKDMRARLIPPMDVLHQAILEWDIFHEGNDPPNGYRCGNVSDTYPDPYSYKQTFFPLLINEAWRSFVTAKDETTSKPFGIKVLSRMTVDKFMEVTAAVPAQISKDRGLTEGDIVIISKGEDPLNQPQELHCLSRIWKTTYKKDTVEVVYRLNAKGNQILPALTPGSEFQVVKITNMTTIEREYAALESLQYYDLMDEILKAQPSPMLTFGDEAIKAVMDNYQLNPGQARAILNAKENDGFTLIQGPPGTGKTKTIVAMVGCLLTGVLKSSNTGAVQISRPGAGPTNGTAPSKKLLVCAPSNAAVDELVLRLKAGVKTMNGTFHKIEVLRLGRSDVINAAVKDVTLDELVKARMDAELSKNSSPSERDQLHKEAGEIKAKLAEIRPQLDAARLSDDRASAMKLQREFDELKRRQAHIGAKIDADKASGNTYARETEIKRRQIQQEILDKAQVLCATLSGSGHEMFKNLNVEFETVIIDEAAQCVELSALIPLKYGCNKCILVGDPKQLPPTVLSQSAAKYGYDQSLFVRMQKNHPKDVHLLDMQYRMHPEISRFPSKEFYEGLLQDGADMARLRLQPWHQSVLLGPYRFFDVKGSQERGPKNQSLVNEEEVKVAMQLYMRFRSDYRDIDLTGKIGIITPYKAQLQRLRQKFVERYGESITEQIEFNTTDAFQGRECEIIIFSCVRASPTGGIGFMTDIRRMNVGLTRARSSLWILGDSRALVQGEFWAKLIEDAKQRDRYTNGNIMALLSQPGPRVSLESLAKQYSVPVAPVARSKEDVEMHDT

Sequence of CtSen1^FL (G0S163 1-1993): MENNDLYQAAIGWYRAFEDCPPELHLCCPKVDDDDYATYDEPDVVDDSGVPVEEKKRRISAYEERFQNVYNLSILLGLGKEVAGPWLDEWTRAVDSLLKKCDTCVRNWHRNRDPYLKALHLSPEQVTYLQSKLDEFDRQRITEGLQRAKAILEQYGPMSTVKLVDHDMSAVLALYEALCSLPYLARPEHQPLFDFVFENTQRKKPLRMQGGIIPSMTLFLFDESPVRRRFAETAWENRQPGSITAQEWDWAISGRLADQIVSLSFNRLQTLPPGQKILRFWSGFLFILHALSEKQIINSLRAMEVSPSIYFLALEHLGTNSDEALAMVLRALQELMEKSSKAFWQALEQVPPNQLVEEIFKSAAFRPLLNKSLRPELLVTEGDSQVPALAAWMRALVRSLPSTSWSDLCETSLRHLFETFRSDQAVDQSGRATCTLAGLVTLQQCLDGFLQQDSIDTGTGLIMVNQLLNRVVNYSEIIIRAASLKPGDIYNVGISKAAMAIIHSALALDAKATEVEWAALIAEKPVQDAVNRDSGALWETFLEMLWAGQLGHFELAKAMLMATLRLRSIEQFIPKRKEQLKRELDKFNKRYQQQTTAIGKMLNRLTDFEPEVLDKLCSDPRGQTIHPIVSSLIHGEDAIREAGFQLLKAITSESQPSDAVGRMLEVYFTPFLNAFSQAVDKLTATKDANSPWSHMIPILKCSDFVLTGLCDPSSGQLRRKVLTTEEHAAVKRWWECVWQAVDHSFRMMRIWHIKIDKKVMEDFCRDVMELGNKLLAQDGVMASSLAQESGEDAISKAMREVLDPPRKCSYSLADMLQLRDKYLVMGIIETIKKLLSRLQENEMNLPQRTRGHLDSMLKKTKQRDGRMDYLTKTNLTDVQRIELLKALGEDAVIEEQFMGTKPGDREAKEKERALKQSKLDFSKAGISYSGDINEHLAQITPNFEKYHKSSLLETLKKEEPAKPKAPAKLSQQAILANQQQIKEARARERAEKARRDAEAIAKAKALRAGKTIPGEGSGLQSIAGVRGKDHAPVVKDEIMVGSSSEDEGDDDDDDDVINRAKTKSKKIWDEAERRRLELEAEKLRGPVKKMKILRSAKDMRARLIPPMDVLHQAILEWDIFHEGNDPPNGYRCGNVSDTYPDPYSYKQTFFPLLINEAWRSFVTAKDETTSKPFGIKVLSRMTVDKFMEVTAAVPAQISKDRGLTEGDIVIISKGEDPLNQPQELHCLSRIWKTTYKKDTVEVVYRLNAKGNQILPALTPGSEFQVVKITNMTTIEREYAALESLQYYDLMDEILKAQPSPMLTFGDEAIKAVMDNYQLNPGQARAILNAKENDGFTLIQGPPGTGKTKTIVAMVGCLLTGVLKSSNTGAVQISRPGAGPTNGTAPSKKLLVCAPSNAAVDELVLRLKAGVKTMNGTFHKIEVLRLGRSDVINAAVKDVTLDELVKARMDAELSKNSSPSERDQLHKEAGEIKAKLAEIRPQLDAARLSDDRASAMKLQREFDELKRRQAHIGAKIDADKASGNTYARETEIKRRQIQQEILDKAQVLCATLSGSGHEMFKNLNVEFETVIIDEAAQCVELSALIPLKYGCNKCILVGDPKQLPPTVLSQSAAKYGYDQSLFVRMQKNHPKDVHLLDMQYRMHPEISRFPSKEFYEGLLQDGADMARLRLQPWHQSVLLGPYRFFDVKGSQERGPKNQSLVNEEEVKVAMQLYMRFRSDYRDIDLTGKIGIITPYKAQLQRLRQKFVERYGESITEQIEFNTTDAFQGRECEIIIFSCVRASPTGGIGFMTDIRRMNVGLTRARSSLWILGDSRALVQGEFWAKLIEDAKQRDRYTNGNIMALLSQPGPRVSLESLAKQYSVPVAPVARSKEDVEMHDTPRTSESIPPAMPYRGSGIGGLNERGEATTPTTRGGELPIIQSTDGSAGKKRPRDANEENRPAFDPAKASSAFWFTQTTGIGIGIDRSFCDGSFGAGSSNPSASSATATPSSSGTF

Molecule | malachite green phosphate release ATPase assay (CtSen1^FL) | binding result (CtSen1Hel-1878)
Nc1ncnc2c1ncn2[C@@H]1O[C@H](COP(=O)(O)OP(=O)(O)OP(=O)(O)O)[C@@H](O)[C@H]1O [ATP] | Substrate stimulated ATP hydrolysis of mutant Sen1 proteins was monitored in a phosphate release assay | –
UUUUUUUUUUUUUUU (ssRNA) [poly-U 15 nt] | – | binds
